Assay results from patent US12552785B2, “Pyrazolo[1,5-α]pyridine derivative, preparation method therefor, and composition and use thereof” (SHENZHEN ZHONGGE BIOLOGICAL TECHNOLOGY CO., LTD., priority 2020, dated 2026).

Columns and labels:
RET = RET (Homo sapiens, UniProt P07949); experiment: HTRF method for testing the inhibitory activity of compounds against RET; type: biochemical; conditions: IC50 by nonlinear regression, read-out: RET kinase activity
Procedure: (a) In Vitro Screening Experiment-HTRF Method for Testing the Inhibitory Activity of Compounds Against RET Experimental Procedure: 1. […] 2. The test compound (5 mM stock solution) was diluted 5 folds to 1 mM with 100% dimethyl sulfoxide; the compound was diluted into 10 concentrations at an equal ratio of 1:3 in a 384-well dilution plate. 3. 0.2 μL of the serially diluted compound was added to a 384-well plate using an Echo 550 pipetting system, 2 replicate wells for each concentration, and the final concentration of dimethyl sulfoxide was 0.5% (v/v). […] 6. […] The reaction solution was centrifuged at 1000 g for 30 s, and then sealed, and incubated at room temperature for 30 min. 8. […] 10. […] 11. […] IC50 was calculated with software GraphPad 6.0 by fitting inhibition values and logarithms of compound concentrations to a nonlinear regression (dose response−variable slope).

Ba/F3-KIF5B-RET cell = molecular target: T1, Ba/F3-KIF5B-RET cell (Homo sapiens, UniProt P07949); experiment: CellTiter-Glo luminescence assay for inhibitory activity against Ba/F3-KIF5B-RET cell; type: cell-based; conditions: Ba/F3-KIF5B-RET cells, 72 h
T1 construct: fused on or other part: P33176 (Kinesin-1 heavy chain)
T1 sequence (P07949 whole entry, stated change not applied, the tested form may be a part): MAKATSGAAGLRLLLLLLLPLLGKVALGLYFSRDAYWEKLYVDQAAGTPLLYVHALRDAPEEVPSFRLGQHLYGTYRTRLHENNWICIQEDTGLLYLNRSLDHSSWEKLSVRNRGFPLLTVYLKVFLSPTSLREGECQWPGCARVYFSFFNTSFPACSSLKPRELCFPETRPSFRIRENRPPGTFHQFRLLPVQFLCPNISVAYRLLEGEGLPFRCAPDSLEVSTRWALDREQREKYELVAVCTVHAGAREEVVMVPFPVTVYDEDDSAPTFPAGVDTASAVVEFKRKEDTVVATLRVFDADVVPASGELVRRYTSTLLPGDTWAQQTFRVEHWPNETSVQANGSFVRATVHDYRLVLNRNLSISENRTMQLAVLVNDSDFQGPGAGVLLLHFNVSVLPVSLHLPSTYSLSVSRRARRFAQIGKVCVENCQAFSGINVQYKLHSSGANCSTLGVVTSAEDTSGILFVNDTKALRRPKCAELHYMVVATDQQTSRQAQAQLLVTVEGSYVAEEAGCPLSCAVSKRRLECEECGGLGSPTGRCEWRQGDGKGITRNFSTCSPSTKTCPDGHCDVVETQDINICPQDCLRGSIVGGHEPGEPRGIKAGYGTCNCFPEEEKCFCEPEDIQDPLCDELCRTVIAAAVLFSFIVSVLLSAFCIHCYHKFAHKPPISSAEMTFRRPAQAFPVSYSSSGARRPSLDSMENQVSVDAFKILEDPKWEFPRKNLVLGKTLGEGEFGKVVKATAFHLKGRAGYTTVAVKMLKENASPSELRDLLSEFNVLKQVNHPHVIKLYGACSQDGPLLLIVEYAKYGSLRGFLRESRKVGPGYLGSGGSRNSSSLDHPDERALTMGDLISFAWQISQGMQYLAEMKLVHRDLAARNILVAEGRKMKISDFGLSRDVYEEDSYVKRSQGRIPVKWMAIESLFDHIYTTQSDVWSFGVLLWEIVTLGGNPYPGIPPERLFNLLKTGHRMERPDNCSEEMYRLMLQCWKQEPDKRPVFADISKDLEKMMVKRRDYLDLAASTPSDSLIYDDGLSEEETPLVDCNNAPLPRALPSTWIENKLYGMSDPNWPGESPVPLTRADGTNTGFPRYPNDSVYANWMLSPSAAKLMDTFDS
Excerpt: (c) In Vitro Screening Experiment—CellTiter-Glo Luminescence Assay for Testing the Inhibitory Activity of Compounds Against Ba/F3-KIF5B-RET Cell Experimental Procedure: 1. The mammalian cell expression vector containing human KIF5B-RET cDNA was introduced into Ba/F3 cells using the Neon® transfection system method, and the surviving clones screened by puromycin were subjected to cell growth inhibitory function experiments and Western blotting to verify cell lines with stable and high expression of RET. 2. […] 3. The test compound (5 mM stock) was diluted 2.5 folds to 2 mM with 100% dimethyl sulfoxide; and the compound was diluted into 10 concentrations at an equal ratio of 1:3 in a 384-well dilution plate. 4. […] 6. […] 7. By fitting the data with XLFit 5.0 based on the parameters formula, the IC50 value was calculated as: Y=Bottom+(Top−Bottom)/(1+10^((Log IC50−X)*HillSlope)).

VEGFR2 = VEGFR2 (Homo sapiens, UniProt P35968); experiment: HTRF method for testing the inhibitory activity of compounds against VEGFR2; type: biochemical; conditions: IC50 by nonlinear regression, read-out: VEGFR2 kinase activity
Sequence of VEGFR2 (P35968 20-1356, species assumed): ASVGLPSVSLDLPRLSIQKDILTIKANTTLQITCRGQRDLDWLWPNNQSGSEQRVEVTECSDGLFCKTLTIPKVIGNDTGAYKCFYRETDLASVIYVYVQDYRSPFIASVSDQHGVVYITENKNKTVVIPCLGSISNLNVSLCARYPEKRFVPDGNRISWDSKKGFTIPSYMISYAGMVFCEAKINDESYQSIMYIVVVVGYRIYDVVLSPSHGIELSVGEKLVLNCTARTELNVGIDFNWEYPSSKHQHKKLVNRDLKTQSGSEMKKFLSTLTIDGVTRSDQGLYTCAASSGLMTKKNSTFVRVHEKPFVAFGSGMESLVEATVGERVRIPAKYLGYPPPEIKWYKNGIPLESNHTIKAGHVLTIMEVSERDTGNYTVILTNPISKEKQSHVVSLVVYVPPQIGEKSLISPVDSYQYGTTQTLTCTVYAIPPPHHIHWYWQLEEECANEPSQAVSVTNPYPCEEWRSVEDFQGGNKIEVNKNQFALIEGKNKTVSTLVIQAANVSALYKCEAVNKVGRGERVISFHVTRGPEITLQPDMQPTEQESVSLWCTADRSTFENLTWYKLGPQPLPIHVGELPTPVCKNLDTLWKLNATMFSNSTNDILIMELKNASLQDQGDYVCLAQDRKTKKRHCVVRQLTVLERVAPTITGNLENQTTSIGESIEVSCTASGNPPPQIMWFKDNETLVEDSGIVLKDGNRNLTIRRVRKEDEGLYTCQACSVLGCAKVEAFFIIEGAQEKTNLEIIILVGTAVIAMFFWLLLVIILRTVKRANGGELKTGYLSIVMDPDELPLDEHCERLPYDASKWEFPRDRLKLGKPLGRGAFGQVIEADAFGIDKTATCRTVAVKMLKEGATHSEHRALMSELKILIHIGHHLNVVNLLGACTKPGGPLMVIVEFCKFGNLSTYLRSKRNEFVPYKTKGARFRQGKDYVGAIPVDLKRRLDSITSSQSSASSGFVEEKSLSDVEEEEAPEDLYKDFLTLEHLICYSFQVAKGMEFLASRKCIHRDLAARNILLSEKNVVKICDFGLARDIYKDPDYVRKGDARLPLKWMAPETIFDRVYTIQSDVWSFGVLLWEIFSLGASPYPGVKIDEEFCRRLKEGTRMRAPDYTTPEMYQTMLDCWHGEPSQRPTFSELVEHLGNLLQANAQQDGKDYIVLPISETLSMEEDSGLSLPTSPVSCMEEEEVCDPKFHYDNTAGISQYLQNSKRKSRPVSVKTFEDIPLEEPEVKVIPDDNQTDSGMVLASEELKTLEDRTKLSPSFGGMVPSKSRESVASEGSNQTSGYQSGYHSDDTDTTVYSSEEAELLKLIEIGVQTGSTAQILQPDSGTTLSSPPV
Procedure: (b) In Vitro Screening Experiment—HTRF Method for Testing the Inhibitory Activity of Compounds Against VEGFR2 Experimental Procedure: 1. […] The test compound (5 mM stock solution) was diluted 5 folds to 1 mM with 100% dimethyl sulfoxide; the compound was diluted into 10 concentrations at an equal ratio of 1:3 in a 384-well dilution plate. 3. […] 6. […] The reaction solution was centrifuged at 1000 g for 30 s, and then sealed, and incubated at room temperature for 40 min. 8. […] 10. […] 11. […] 12. IC50 was calculated with software GraphPad 6.0 by fitting inhibition values and logarithms of compound concentrations to a nonlinear regression (dose response−variable slope).

Sequence of RET (P07949 29-1114): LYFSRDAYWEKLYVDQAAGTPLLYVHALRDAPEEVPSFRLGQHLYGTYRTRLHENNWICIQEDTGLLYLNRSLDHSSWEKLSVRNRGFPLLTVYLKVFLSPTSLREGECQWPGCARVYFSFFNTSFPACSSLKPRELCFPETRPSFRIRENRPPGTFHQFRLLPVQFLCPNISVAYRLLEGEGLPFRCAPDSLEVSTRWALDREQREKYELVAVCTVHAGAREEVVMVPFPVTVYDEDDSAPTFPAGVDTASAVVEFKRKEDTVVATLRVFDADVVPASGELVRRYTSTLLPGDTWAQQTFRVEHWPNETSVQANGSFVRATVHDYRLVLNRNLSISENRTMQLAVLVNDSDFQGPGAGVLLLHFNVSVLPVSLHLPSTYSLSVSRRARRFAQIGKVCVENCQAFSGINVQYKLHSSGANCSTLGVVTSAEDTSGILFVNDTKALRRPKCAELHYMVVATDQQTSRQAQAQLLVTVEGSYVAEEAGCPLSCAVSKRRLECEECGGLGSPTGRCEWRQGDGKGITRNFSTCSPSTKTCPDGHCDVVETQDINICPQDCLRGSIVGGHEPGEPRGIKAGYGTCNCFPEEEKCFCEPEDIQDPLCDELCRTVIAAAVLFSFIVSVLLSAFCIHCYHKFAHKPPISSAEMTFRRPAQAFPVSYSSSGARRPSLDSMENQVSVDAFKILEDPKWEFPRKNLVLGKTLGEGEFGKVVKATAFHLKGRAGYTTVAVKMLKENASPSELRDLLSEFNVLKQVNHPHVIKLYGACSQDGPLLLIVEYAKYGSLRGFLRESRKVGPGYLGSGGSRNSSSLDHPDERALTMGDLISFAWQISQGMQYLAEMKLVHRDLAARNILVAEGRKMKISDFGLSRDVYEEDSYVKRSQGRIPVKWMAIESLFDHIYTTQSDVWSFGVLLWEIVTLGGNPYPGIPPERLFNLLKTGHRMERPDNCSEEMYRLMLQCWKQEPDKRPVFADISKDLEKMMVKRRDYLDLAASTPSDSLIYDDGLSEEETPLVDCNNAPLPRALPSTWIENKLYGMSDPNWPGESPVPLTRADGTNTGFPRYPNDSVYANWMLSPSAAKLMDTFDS

`C[C@H](Nc1ccc(-c2cc(OCC(C)(C)O)cn3ncc(C#N)c23)cn1)c1ccc(-n2cc(F)cn2)nc1` [Compound 2, (S)-4-(6-((1-(6-(4-fluoro-1H-pyrazol-1-yl)pyridin-3-yl)ethyl)amino)pyridin-3-yl)-6-(2-hydroxy-2-methylpropoxy)pyrazolo[1,5-a]pyridine-3-carbonitrile] showed an IC50 (RET) of 0.46 nM, a GI50 (Ba/F3-KIF5B-RET cell) of 10.7 nM and an IC50 (VEGFR2) of 3.51 nM.

With `C[C@@H](c1ccc(-n2cc(F)cn2)nc1)N(C)c1ccc(-c2cc(N3CCN(C)CC3)cn3ncc(C#N)c23)cn1` [Compound 19, (S)-4-(6-((1-(6-(4-fluoro-1H-pyrazol-1-yl)pyridin-3-yl)ethyl)(methyl)amino)pyridine-3-yl)-6-(4-methylpiperazin-1-yl)pyrazolo[1,5-a]pyridine-3-carbonitrile] the IC50 (RET) was 0.42 nM, the GI50 (Ba/F3-KIF5B-RET cell) was 41 nM and the IC50 (VEGFR2) was 41.1 nM.

`C[C@@H](c1ccc(-n2cc(F)cn2)nc1)N(C)c1ccc(-c2cc(OCC3(O)CC3)cn3ncc(C#N)c23)cn1` [Compound 46, (S)-4-(6-((1-(6-(4-fluoro-1H-pyrazolyl)pyridin-3-yl)ethyl)(methyl)amino)pyridin-3-yl)-6-((1-hydroxycyclopropyl)methoxy)pyrazolo[1,5-a]pyridine-3-carbonitrile] was tested, and the IC50 (RET) was 0.73 nM, the GI50 (Ba/F3-KIF5B-RET cell) was 13.6 nM and the IC50 (VEGFR2) was 80.5 nM.

`CC(C)(O)COc1cc(-c2ccc(NCc3ccc(N4CCCC4)nc3)nc2)c2c(C#N)cnn2c1` [Compound 10, 6-(2-hydroxy-2-methylpropoxy)-4-(6-(((6-(pyrrolidin-1-yl)pyridin-3-yl)methyl)amino)pyridine-3-yl)pyrazo[1,5-a]pyridine-3-carbonitrile] showed an IC50 (RET) of 2.08 nM, a GI50 (Ba/F3-KIF5B-RET cell) of 7.3 nM and an IC50 (VEGFR2) of 90.8 nM.

For `CC(C)(O)COc1cc(-c2ccc(NCc3ccc(-n4ccnc4)nc3)nc2)c2c(C#N)cnn2c1` [Compound 7], the IC50 (RET) was 7.14 nM, the GI50 (Ba/F3-KIF5B-RET cell) was 203 nM and the IC50 (VEGFR2) was 72.1 nM.

In the case of `C[C@@H](c1ccc(-n2cc(F)cn2)nc1)N(C)c1ccc(-c2cc(-c3cnn(C)c3)cn3ncc(C#N)c23)cn1` [Compound 29, (S)-6-(1-methyl-1H-pyrazol-4-yl)-4-(6-((1-(6-(4-fluoro-1H-pyrazol-1-yl)pyridine-3-yl)ethyl)(methyl)amino)pyridin-3-yl)pyrazolo[1,5-a]pyridine-3-carbonitrile], the IC50 (RET) is reported as 0.36 nM, the GI50 (Ba/F3-KIF5B-RET cell) is reported as 0.75 nM and the IC50 (VEGFR2) is reported as 3.29 nM.

`COc1ccc([C@H](C)N(C)c2ccc(-c3cc(OCC(C)(C)O)cn4ncc(C#N)c34)cn2)cn1` [Compound 43, (S)-6-(2-hydroxy-2-methylpropoxy)-4-(6-((1-(6-methoxypyridin-3-yl)ethyl)(methyl)amino)pyridin-3-yl)pyrazolo[1,5-a]pyridine-3-carbonitrile] showed an IC50 (RET) of 2.05 nM, a GI50 (Ba/F3-KIF5B-RET cell) of 35 nM and an IC50 (VEGFR2) of 245 nM.

Compound `CN(Cc1ccc(-n2cc(F)cn2)nc1)c1ccc(-c2cc(OCC(C)(C)O)cn3ncc(C#N)c23)cn1` [Compound 56, 4-(6-(((6-(4-fluoro-1H-pyrazol-1-yl)pyridin-3-yl)methyl)(methyl)amino)pyridin-3-yl)-6-(2-hydroxy-2-methylpropoxy)pyrazolo[1,5-a]pyridine-3-carbonitrile] has an IC50 (RET) of 0.68 nM, a GI50 (Ba/F3-KIF5B-RET cell) of 13.9 nM and an IC50 (VEGFR2) of 30.2 nM.

`Cc1cn(-c2ccc(CNc3ccc(-c4cc(OCC(C)(C)O)cn5ncc(C#N)c45)cn3)cn2)cn1` [Compound 11] was tested, and the IC50 (RET) was 12.5 nM, the GI50 (Ba/F3-KIF5B-RET cell) was 613 nM and the IC50 (VEGFR2) was 110 nM.

In the case of `C[C@H](Nc1ccc(-c2cc(OCC(C)(C)O)cn3ncc(C#N)c23)cn1)c1ccc(-n2cc(F)cn2)cc1` [Compound 16, (S)-4-(6-((1-(4-(4-fluoro-1H-pyrazol-1-yl)phenyl)ethyl)amino)pyridin-3-yl)-6-(2-hydroxy-2-methylpropoxy)pyrazolo[1,5-a]pyridine-3-carbonitrile], the IC50 (RET) is reported as 1.63 nM, the GI50 (Ba/F3-KIF5B-RET cell) is reported as 35.5 nM and the IC50 (VEGFR2) is reported as 15.6 nM.

`C[C@@H](c1ccc(-n2cc(F)cn2)nc1)N(C)c1ccc(-c2cc(OCC#N)cn3ncc(C#N)c23)cn1` [Compound 32, (S)-4-(6-((1-(6-(4-fluoro-1H-pyrazol-1-yl)pyridin-3-yl)ethyl)(methyl)amino)pyridine-3-yl)-6-cyanomethoxypyrazolo[1,5-a]pyridine-3-carbonitrile] gave an IC50 (RET) of 4.23 nM, a GI50 (Ba/F3-KIF5B-RET cell) of 224 nM and an IC50 (VEGFR2) of over 5000 nM.

`C[C@@H](c1ccc(-n2cccn2)nc1)N(C)c1ccc(-c2cc(OCC(C)(C)O)cn3ncc(C#N)c23)cn1` [Compound 58, (S)-4-(6-((1-(6-(1H-pyrazol-1-yl)pyridin-3-yl)ethyl)(methyl)amino)pyridin-3-yl)-6-(2-hydroxy-2-methylpropoxy)pyrazolo[1,5-a]pyridine-3-carbonitrile] showed an IC50 (RET) of 0.5 nM, a GI50 (Ba/F3-KIF5B-RET cell) of 42.8 nM and an IC50 (VEGFR2) of 26.5 nM.

`C[C@@H](c1ccc(-n2cc(F)cn2)nc1)N(C)c1ccc(-c2cc(OCC3CC3)cn3ncc(C#N)c23)cn1` [Compound 28, (S)-6-(cyclopropylmethoxy)-4-(6-((1-(6-(4-fluoro-1H-pyrazol-1-yl)pyridin-3-yl)ethyl)(methyl)amino)pyridin-3-yl)pyrazolo[1,5-a]pyridine-3-carbonitrile] gave an IC50 (RET) of 2.25 nM, a GI50 (Ba/F3-KIF5B-RET cell) of 177 nM and an IC50 (VEGFR2) of 1190 nM.

`CC(C)(O)COc1cc(-c2ccc(NCc3ccc(-c4cccnc4)nc3)nc2)c2c(C#N)cnn2c1` [Compound 9, 4-(6-(([2,3′-bipyridyl]-5-ylmethyl)amino)pyridin-3-yl)-6-(2-hydroxy-2-methylpropoxy)pyrazole[1,5-a]pyridine-3-carbonitrile] showed an IC50 (RET) of 19.6 nM, a GI50 (Ba/F3-KIF5B-RET cell) of 145 nM and an IC50 (VEGFR2) of 116 nM.

In the case of `C[C@@H](c1ccc(-n2cc(F)cn2)cc1)N(C)c1ccc(-c2cc(OCC(C)(C)C#N)cn3ncc(C#N)c23)cn1` [Compound 17, (S)-6-(2-cyano-2-methylpropoxy)-4-(6-((1-(4-(4-fluoro-1H-pyrazol-1-yl)phenyl)ethyl)(methyl)amino)pyridin-3-yl)pyrazolo[1,5-a]pyridine-3-carbonitrile], the IC50 (RET) is reported as 18.4 nM, the GI50 (Ba/F3-KIF5B-RET cell) is reported as 184 nM and the IC50 (VEGFR2) is reported as 1210 nM.

With `COCOc1cc(-c2ccc(N(C)[C@@H](C)c3ccc(-n4cc(F)cn4)nc3)nc2)c2c(C#N)cnn2c1` [Compound 55, (S)-4-(6-((1-(6-(4-fluoro-1H-pyrazol-1-yl)pyridin-3-yl)ethyl)(methyl)amino)pyridine-3-yl)-6-(methoxymethoxy)pyrazolo[1,5-a]pyridine-3-carbonitrile] the IC50 (RET) was 3.79 nM, the GI50 (Ba/F3-KIF5B-RET cell) was 380 nM and the IC50 (VEGFR2) was over 5000 nM.
